Values quoted from earlier work, collected in patent US8628797B2, “Oral extended-release composition” (Andrx Pharmaceuticals, LLC, priority 2003, dated 2014).
Read-outs that look alike come from different tables or passages of the source.

Tests used:
[1] = 1 part drug in the stated parts of water

Compound	absorption in the presence of food (in words, literature review)	other results
COc1c2occc2cc2ccc(=O)oc12 [8-methoxsalen]	–	absorption in the presence of food (in vivo): increased
CC[C@H]1OC(=O)[C@H](C)[C@@H](O[C@H]2C[C@@](C)(OC)[C@@H](O)[C@H](C)O2)[C@H](C)[C@@H](O[C@@H]2O[C@H](C)C[C@H](N(C)C)[C@H]2O)[C@](C)(OC)C[C@@H](C)C(=O)[C@H](C)[C@@H](O)[C@]1(C)O [Clarithromycin, 6-O-methylerythromycin A]	–	solubility [1]: ~1,000 parts of water
C=CCOc1ccc(CC(=O)O)cc1Cl [alclofenac]	delayed	–
CC(=O)Oc1ccccc1C(=O)O [aspirin]	delayed	–
NS(=O)(=O)c1cc2c(cc1C(F)(F)F)NC(Cc1ccccc1)NS2(=O)=O (stereo not shown) [bendroflumethiazide]	unaffected	–
N[C@@H](C(=O)N[C@@H]1C(=O)N2C(C(=O)O)=C(Cl)CS[C@H]12)c1ccccc1 [cefaclor]	delayed	–
CN/C(=N/CCSCc1nc[nH]c1C)NC#N [cimetidine]	delayed	–
O=c1oc2ccccc2c(O)c1Cc1c(O)c2ccccc2oc1=O [dicoumarol]	increased	–
CCC(=O)O[C@H]1[C@H](O[C@@H]2[C@@H](C)[C@H](O[C@H]3C[C@@](C)(OC)[C@@H](O)[C@H](C)O3)[C@@H](C)C(=O)O[C@H](CC)[C@@](C)(O)[C@H](O)[C@@H](C)C(=O)[C@H](C)C[C@@]2(C)O)O[C@H](C)C[C@@H]1N(C)C [erythromycin estolate]	unaffected	–
CC1Cc2ccccc2N1NC(=O)c1ccc(Cl)c(S(N)(=O)=O)c1 (stereo not shown) [indapamide]	–	solubility [1]: more than 10,000 parts of water
CC(C(=O)O)c1ccc(N2Cc3ccccc3C2=O)cc1 (stereo not shown) [indoprofen]	delayed	–
O=C1CN(/N=C/c2ccc([N+](=O)[O-])o2)C(=O)N1 [nitrofurantoin]	increased	–
spiramycin	unaffected	–
